# pIC50: −log10 of the molar value. Like-named read-outs stand apart in the source and are kept apart here.
# Columns and labels:
# liver α-1,6-glucosidase = biological target: T1, liver α-1,6-glucosidase (Homo sapiens, UniProt P35573); experiment: Glycogen debranching enzyme activity (Brown and Brown method); assay type: biochemical; conditions: read-out: I.C.50 liver α-1,6-glucosidase
# T1 construct: from tissue
# cultured liver cells = experiment: Glucose production from cultured rat hepatocytes (basal and glucagon stimulated glycogenolysis); assay type: cell-based; conditions: Hepatocyte; for activity at 50 µM / activity at 32 µM: 70 min, glucose in medium after 70 minutes; for activity at 50 µM: test compound 50µM; for activity at 32 µM: test compound 32µM
# Description: During the last 24 hours, the hepatocytes were cultured in the presence of high levels of insulin (5 nM) and glucose (15 mM), which result in the incorporation of glucose into glycogen. Therefore, at the time of the experiment, the cells mimic livers from fed animals. Experiments were initiated after 72 hours of culture by 2 times wash of cells and addition of a 20 mM HEPES experimental buffer including balanced salts, but without glucose. The test compound was added simultaneously with the experimental buffer. To some cultures, glucagon (0.5 nM) was added after 10 minutes in order to stimulate glucose production from liver cells. The glucose released into the media, reflecting the glucose production of the liver cells, was measured 70 minutes after the start of the experiment and standardized to cellular DNA content.
# Phosphorylase = conditions: read-out: I.C.50 Phosphorylase; phosphorylase purchased from Sigma or extracted from rat livers
# [1] = relative to basal glucose production (no addition with glucagon = 283%), read-out: Glucose production With glucagon (0.5nM)
# [2] = basal, without glucagon, read-out: I.C.50 Liver cell glucose production: Basal
# [3] = read-out: I.C.50 Liver cell glucose production: Glucagon stimulated
# T1 sequence (P35573 whole entry): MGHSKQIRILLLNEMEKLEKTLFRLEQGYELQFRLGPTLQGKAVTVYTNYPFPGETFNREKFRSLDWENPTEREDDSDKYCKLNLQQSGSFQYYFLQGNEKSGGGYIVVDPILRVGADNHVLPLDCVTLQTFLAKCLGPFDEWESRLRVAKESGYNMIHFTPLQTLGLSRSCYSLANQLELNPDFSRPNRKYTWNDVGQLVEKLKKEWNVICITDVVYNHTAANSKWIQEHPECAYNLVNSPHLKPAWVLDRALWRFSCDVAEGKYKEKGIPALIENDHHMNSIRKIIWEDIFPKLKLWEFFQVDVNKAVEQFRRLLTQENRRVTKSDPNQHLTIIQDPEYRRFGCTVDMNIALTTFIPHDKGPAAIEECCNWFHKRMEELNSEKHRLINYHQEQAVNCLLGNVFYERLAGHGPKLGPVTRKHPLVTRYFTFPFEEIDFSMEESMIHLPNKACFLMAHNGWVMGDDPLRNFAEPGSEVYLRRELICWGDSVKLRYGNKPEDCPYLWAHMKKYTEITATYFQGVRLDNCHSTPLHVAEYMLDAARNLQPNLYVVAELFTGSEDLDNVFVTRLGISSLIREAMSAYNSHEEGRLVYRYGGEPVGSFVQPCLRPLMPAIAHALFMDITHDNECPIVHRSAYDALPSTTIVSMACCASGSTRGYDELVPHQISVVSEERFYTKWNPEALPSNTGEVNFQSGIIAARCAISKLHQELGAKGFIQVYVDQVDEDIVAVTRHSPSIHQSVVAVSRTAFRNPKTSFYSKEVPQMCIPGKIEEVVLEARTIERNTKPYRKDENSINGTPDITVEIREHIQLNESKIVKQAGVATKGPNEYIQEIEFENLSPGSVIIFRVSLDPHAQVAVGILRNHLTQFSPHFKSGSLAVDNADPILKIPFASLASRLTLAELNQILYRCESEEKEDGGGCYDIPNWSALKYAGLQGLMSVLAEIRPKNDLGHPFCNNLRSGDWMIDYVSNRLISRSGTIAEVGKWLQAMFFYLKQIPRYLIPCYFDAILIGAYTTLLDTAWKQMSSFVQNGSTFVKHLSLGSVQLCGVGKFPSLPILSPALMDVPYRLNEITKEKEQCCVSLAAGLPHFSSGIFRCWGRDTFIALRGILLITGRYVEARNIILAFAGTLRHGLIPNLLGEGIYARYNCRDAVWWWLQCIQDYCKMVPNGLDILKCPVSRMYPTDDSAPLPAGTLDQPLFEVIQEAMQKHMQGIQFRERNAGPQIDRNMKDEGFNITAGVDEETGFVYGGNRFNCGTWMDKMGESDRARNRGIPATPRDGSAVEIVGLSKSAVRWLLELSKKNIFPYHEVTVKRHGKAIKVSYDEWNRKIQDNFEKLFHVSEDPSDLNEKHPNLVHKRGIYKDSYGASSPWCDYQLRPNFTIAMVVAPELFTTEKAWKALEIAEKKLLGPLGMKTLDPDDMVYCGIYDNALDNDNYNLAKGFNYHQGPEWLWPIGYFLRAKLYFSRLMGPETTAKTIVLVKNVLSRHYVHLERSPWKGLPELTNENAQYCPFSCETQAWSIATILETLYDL
Structure (SMILES),"pIC50 (liver α-1,6-glucosidase)","activity at 50 µM (cultured liver cells; relative to basal glucose production (no addition = 100 %), read-out: Glucose production Without glucagon) [%]",activity at 50 µM (cultured liver cells; [1]) [%],pIC50 (cultured liver cells; [2]),pIC50 (cultured liver cells; [3]),pIC50 (Phosphorylase),"activity at 32 µM (cultured liver cells; relative to basal glucose production (no addition = 100 %), standardized to DNA, read-out: Glucose production Without glucagon) [%]",activity at 32 µM (cultured liver cells; [1]) [%]
OC[C@H]1NC[C@H](O)[C@@H](O)[C@@H]1O [1-deoxynojirimycin],5.62,89,237,< 4.00,< 4.00,< 3.70,,
"OC[C@H]1CNC[C@@H](O)[C@@H]1O [Example 1, (3R,4R,5R)-3,4-dihydroxy-5-hydroxymethylpiperidine]",4.11,,,5.89,5.80,,17,32
